Experimental data from ChEMBL document CHEMBL5055686, “Discovery of AL-GDa62 as a Potential Synthetic Lethal Lead for the Treatment of Gastric Cancer” (J Med Chem, 2021).
Calls of active or inactive are those of the source. No cut-off for these calls is given here.

Experiments:
MCF-10A [1] = experiment: Antitumor activity against human spontaneously immortalized wild type MCF-10A cells assessed as cell numbers measured after 48 hrs; assay type: functional, cell-based; details: Homo sapiens, MCF-10A, 48 h; read-out: EC50
[2] = Ratio of EC50 for antitumor activity against human spontaneously immortalized wild type MCF10A cells assessed as cell numbers measured after 48 hrs to antitumor activity against human spontaneously immortalized CDH-/- MCF10A cells assessed as cell numbers measured after 48 hrs; assay type: functional, MCF-10A
MCF-10A [3] = experiment: Antitumor activity against human spontaneously immortalized CDH-/- MCF10A cells assessed as cell numbers measured after 48 hrs; assay type: functional, cell-based; details: Homo sapiens, MCF-10A, 48 h; read-out: EC50
MCF-10A [4] = experiment: Antitumor activity against human spontaneously immortalized CDH-/- MCF10A cells assessed as cell numbers at 3.13 uM measured after 48 hrs; assay type: functional
MCF-10A [5] = experiment: Induction of apoptosis in human spontaneously immortalized wild type MCF10A cells assessed as apoptotic cells at 12.5 uM measured after 48 hrs by flow cytometry-based annexin-V-FITC/propidium iodide (PI) apoptosis assay; assay type: functional
[6] = target: Actin-related protein 2/3 complex subunit 5 (Homo sapiens) (UniProt O15511); experiment: Binding affinity to ARPC5 in human spontaneously immortalized CDH-/- MCF10A cell lysates assessed as change in melting temperature at 3.125 uM for 3 hrs by thermal proteome profiling assay; details: MCF-10A
NCI-N87 [7] = experiment: Antitumor activity against human wild type NCI-N87 cells assessed as cell numbers measured after 48 hrs; assay type: functional, cell-based; details: NCI-N87, 48 h
MCF-10A [8] = experiment: Induction apoptosis in human spontaneously immortalized wild type MCF10A cells assessed as necrotic cells at 6.25 uM measured after 48 hrs by flow cytometry-based annexin-V-FITC/propidium iodide (PI) apoptosis assay; assay type: functional
[9] = Anticancer activity against mouse gastric organoids assessed as reduction in growth by measuring TdTom CdhI-/- at 1.56 uM incubated for 48 hrs; assay type: functional, Gastric gland; parameters: scale not given: the % may be the effect or the level left
MCF-10A [10] = experiment: Induction apoptosis in human spontaneously immortalized wild type MCF10A cells assessed as viable cells at 6.25 uM measured after 48 hrs by flow cytometry-based annexin-V-FITC/propidium iodide apoptosis assay (reference value: 94.4%); assay type: functional; details: read-out: Activity
Homo sapiens = species on record: Homo sapiens; experiment: Inhibition of SUMOylation of GST-tagged RanGAP1 (unknown origin) protein using SUMO1 and UBC9 up to 3.13 uM by Western blotting analysis
MCF-10A [11] = experiment: Induction apoptosis in human spontaneously immortalized wild type MCF10A cells assessed as necrotic cells at 3.25 uM measured after 48 hrs by flow cytometry-based annexin-V-FITC/propidium iodide (PI) apoptosis assay; assay type: functional
MCF-10A [12] = experiment: Binding affinity to TCOF1 in human spontaneously immortalized CDH-/- MCF10A cell lysates assessed as change in melting temperature at 3.125 uM for 3 hrs by thermal proteome profiling assay
[13] = target: SUMO-conjugating enzyme UBC9 (Homo sapiens) (UniProt P63279); experiment: Binding affinity to SUMO-conjugating UBC9 in human spontaneously immortalized CDH-/- MCF10A cell lysates assessed as change in melting temperature at 3.125 uM for 3 hrs by thermal proteome profiling assay; details: MCF-10A
Chain of SUMO-conjugating enzyme UBC9 (Homo sapiens) (P63279 whole entry): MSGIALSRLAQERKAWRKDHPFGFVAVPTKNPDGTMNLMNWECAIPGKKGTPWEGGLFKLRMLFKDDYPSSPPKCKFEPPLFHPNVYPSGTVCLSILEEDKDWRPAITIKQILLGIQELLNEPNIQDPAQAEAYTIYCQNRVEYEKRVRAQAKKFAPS

MCF-10A [14] = experiment: Induction apoptosis in human CDH-/- MCF10A cells assessed as viable cells at 6.25 uM measured after 48 hrs by flow cytometry-based annexin-V-FITC/propidium iodide (PI) apoptosis assay (reference value: 93.6%); assay type: functional; details: read-out: Activity
MCF-10A [15] = experiment: Induction apoptosis in human spontaneously immortalized wild type MCF10A cells assessed as early apoptotic cells at 6.25 uM measured after 48 hrs by flow cytometry-based annexin-V-FITC/propidium iodide (PI) apoptosis assay (reference value: 1.2%); assay type: functional
MCF-10A [16] = experiment: Induction of apoptosis in human spontaneously immortalized CDH-/- MCF10A cells assessed as apoptotic cells at 12.5 uM measured after 48 hrs by flow cytometry-based annexin-V-FITC/propidium iodide (PI) apoptosis assay; assay type: functional
MCF-10A [17] = experiment: Induction apoptosis in human CDH-/- MCF10A cells assessed as late apoptotic cells at 6.25 uM measured after 48 hrs by flow cytometry-based annexin-V-FITC/propidium iodide (PI) apoptosis assay (reference value: 3.2%); assay type: functional
NCI-N87 [18] = experiment: Antitumor activity against human CDH-/- NCI-N87cells assessed as cell numbers measured after 48 hrs; assay type: functional, cell-based; details: NCI-N87, 48 h
MCF-10A [19] = experiment: Induction apoptosis in human CDH-/- MCF10A cells assessed as early apoptotic cells at 6.25 uM measured after 48 hrs by flow cytometry-based annexin-V-FITC/propidium iodide (PI) apoptosis assay (reference value: 2.9%); assay type: functional
MCF-10A [20] = experiment: Induction apoptosis in human spontaneously immortalized wild type MCF10A cells assessed as late apoptotic cells at 6.25 uM measured after 48 hrs by flow cytometry-based annexin-V-FITC/propidium iodide (PI) apoptosis assay (reference value: 4.2%); assay type: functional
[21] = Ratio of EC50 for antitumor activity against human NCI-N87 cells assessed as cell numbers measured after 48 hrs to antitumor activity against human CDH-/- NCI-N87 cells assessed as cell numbers measured after 48 hrs; assay type: functional
[22] = Anticancer activity against mouse mammary organoids assessed as reduction in growth by measuring TdTom CdhI-/- at 12.5 uM incubated for 48 hrs; assay type: functional, Mammary gland; parameters: scale not given: the % may be the effect or the level left

SMILES | EC50 (MCF-10A [1]) [µM] | Ratio EC50 [2] | EC50 (MCF-10A [3]) [µM] | inhibition at 3.13 µM (MCF-10A [4]) [%] | also measured
COc1ccc2c(NCc3ccc(F)cc3)cc(C)nc2c1 | 15.9 | 1.6 | 10.2 | 10 | 
COc1ccc2nc(CO)cc(NCc3ccc(F)cc3)c2c1 | 31 | 1.5 | 20.8 | 10 | 
Cc1cc(NCc2ccc(F)cc2)c2cc(OCCCN3CCCC3)ccc2n1 | 3.2 | 1.6 | 2 | 70 | Activity (MCF-10A [5]): >90%; ΔTm [6]: 3.72 °C; EC50 (NCI-N87 [7]): 8.5 µM; Activity (MCF-10A [8]): 32%; Activity [9]: 40%; viability at 6.25 µM (MCF-10A [10]): 64.9%; inhibition (Homo sapiens): Active; Activity (MCF-10A [11]): 5%; ΔTm (MCF-10A [12]): 8.32 °C; ΔTm [13]: 5.71 °C; viability at 6.25 µM (MCF-10A [14]): 26.7%; Activity (MCF-10A [15]): 23.5%; Activity (MCF-10A [16]): >90%; Activity (MCF-10A [17]): 48%; EC50 (NCI-N87 [18]): 16.4 µM; Activity (MCF-10A [19]): 24.7%; Activity (MCF-10A [20]): 11.2%; Ratio EC50 [21]: 1.9; Activity [22]: 21.3%
COc1ccc2nc(C)cc(NCc3cc(F)cc(F)c3)c2c1 | 18.1 | 1.1 | 13.3 |  | 
COc1ccc2nc(C)cc(NCc3ccccc3)c2c1 | 28.6 | 1.1 | 25.9 |  | 
COc1ccc2nc(C)cc(Nc3ccccc3)c2c1 | 15.9 | 0.9 | 17.6 |  | 
COc1ccc2nc(C)cc(NCc3cccnc3)c2c1 | 49.3 | 1.1 | 44.8 |  | 
Cc1cc(NCc2ccc(F)cc2)c2cc(OCCCCCCO)ccc2n1 | 11.3 | 1.4 | 8.1 |  | 
COc1ccc2nc(C)cc(NCc3cccc(OC(F)F)c3)c2c1 | 14.3 | 1.3 | 10.3 |  | 
CCCCCCCCCCOc1ccc2nc(C)cc(NCc3ccc(F)cc3)c2c1 | 2 | 1 | 1.9 |  | 
